Assay [1] deals with T1, human FGFR1 (Homo sapiens, UniProt P11362).
T1 construct: purchased Invitrogen PV3146
As to the kind of experiment: 33P isotope-labeled kinase activity assay (Reaction Biology Corp), FGFR1. The format is biochemical. As to conditions: 33P-ATP kinase assay, ATP 5 μM, kinase 1.75 nM, substrate pEY + Mn, 120 minutes at room temperature. As to the method: (§1) The IC50 value was determined by ^33P isotope-labeled kinase activity assay (Reaction Biology Corp) to evaluate the inhibitory activity of the test compounds on human FGFR1 and FGFR4.
(§2) Buffer: 20 mM Hepes (pH 7.5), 10 mM MgCl2, 1 mM EGTA, 0.02% Brij35, 0.02 mg/mL BSA, 0.1 mM Na3VO4, 2 mM DTT, 1% DMSO.
(§3) Test procedure: the test compound was dissolved in DMSO at room temperature to prepare a 10 mM solution for use. The substrate was dissolved in a freshly prepared buffer, followed by addition of the kinase to be tested and the resulting mixture was thoroughly mixed. The solution of the test compound in DMSO was added to the above reaction solution by acoustic technique (Echo 550). The concentration of the compound in the reaction solution was 10 μM, 3.33 μM, 1.11 μM, 0.370 μM, 0.123 μM, 41.2 nM, 13.7 nM, 4.57 nM, 1.52 nM, 0.508 nM, or […], 39.1 nM, 9.8 nM, 2.4 nM, 0.61 nM, 0.15 nM, 0.038 nM. After incubation for 15 minutes, ^33P-ATP (activity 0.01 μCi/μL, corresponding concentration was listed in table 1) was added to initiate the reaction. The reaction was allowed to proceed at room temperature for 120 minutes, then the reaction solution was spotted on P81 ion exchange filter paper (Whatman #3698-915). After the filter paper was washed with 0.75% phosphoric acid solution, the radioactivity of the remained phosphorylated substrate on the filter paper was determined. The kinase activity data was expressed as a ratio of the kinase activity of the test compound to the kinase activity of the control group (DMSO), and the IC50 value was obtained by curve fitting using Prism4 software (GraphPad).

Assay [2] addresses T2, human FGFR4 (Homo sapiens, UniProt P22455).
T2 construct: purchased Invitrogen P3054
As to the kind of experiment: 33P isotope-labeled kinase activity assay (Reaction Biology Corp), FGFR4. It is filed as biochemical. As to conditions: for IC50: 33P-ATP kinase assay, ATP 100 μM, kinase 2.5 nM, substrate pEY + Mn, 120 minutes at room temperature; for Inhibition activity difference (IC50 ratio) FGFR4/FGFR1: ratio of FGFR4 IC50 to FGFR1 IC50. As to the method:
as §1, §2, §3

T1 sequence (P11362 22-822): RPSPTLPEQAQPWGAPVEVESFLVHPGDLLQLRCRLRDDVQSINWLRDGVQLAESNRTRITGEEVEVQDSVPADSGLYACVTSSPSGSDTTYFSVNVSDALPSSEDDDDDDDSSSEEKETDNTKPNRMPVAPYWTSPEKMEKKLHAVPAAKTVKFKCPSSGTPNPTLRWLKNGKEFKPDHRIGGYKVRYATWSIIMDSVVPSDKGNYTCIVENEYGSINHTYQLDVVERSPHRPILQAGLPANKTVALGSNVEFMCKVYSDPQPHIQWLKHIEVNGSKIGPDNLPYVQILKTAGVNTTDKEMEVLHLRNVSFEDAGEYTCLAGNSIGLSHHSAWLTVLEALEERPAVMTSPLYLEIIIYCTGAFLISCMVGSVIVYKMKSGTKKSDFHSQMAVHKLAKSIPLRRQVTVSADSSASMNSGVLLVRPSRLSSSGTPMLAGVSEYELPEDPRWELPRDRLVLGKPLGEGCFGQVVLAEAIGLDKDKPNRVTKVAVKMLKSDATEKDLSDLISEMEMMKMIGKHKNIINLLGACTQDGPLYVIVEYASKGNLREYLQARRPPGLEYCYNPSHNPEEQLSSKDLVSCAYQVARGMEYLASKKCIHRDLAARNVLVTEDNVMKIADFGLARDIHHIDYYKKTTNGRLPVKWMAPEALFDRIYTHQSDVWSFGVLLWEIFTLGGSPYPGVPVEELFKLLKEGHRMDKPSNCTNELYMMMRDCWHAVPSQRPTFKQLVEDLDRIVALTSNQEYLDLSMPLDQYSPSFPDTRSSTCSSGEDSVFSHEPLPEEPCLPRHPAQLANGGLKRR
T2 sequence (P22455 22-802): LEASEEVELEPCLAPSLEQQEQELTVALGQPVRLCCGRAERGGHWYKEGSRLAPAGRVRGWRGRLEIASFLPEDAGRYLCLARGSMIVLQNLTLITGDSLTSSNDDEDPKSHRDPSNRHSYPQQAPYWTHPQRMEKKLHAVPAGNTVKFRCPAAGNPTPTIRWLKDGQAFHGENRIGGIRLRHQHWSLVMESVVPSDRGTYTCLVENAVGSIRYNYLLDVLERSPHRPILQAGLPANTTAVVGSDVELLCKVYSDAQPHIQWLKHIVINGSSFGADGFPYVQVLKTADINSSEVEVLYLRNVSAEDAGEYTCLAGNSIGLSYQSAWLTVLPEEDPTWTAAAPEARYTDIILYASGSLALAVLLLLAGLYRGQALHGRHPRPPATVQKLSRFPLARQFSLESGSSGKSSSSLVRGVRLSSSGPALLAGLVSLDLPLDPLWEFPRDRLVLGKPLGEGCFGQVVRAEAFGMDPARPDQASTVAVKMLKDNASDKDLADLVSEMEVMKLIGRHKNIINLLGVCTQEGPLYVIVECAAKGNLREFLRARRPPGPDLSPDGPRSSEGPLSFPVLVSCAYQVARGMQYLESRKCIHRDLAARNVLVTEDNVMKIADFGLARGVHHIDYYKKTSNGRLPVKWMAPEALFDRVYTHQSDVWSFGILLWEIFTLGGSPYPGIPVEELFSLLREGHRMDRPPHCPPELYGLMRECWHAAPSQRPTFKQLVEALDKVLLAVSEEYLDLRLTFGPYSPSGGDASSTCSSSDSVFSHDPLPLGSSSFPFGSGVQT

One may read the IC50 as the concentration that gives 50% inhibition. Consider `C=CC(=O)N1CCC(c2cc(C#Cc3cc(OC)cc(OC)c3)c3c(N)ncnn23)C1` (single isomer, unassigned) [Embodiment 1], for which the figures for the IC50 in assay [1] and in assay [2] were 18.3 nM and 125 nM, respectively. Further, in assay [2], the “Inhibition activity difference (IC50 ratio) FGFR4/FGFR1” value stood at 7.
The like results for `C=CC(=O)N1CCC(c2cc(C#Cc3c(F)c(OC)cc(OC)c3F)c3c(N)ncnn23)C1` (single isomer, unassigned) [Embodiment 3] were, in that order, 0.7 nM, 6.6 nM and 9.
The like results for `C=CC(=O)N1CCC(c2cc(C#Cc3c(F)c(OC)cc(OC)c3F)c3c(N)ncnn23)C1` (single isomer, unassigned) [Embodiment 4] were, in that order, 0.07 nM, 0.08 nM and 1.
As to `C=CC(=O)N1CCC(c2cc(C#Cc3c(Cl)c(OC)cc(OC)c3Cl)c3c(N)ncnn23)C1` (single isomer, unassigned) [Embodiment 5], the IC50 came to 21.8 nM in assay [1] and 450 nM in assay [2]. Besides, the “Inhibition activity difference (IC50 ratio) FGFR4/FGFR1” value in assay [2] turned out to be 21.
Take `C=CC(=O)N1CCC(c2cc(C#Cc3c(Cl)c(OC)cc(OC)c3Cl)c3c(N)ncnn23)C1` (single isomer, unassigned) [Embodiment 6]: the IC50 in assay [1] worked out at 0.3 nM; in assay [2], 4.6 nM. Besides, the “Inhibition activity difference (IC50 ratio) FGFR4/FGFR1” value in assay [2] was 15.

Source of the values: patent US11130761B2, “Substituted pyrrolo[2,1-f][1,2,4]triazines as FGFR inhibitors” (CSPC ZHONGQI PHARMACEUTICAL TECHNOLOGY (SHIJIAZHUANG) CO., …, priority 2016, dated 2021).
